Experimental data: US11147790B2, “Treatment of cutaneous disorders” (Verrica Pharmaceuticals Inc., priority 2017, dated 2021)
Several values for one entry are separate records, joined by “and”; a condition that tells them apart may be missing. Identical values can stand only once.

Experiment: Phase II clinical trial, systemic exposure evaluation (plasma concentration of cantharidin) after topical application to Molluscum contagiosum lesions
Format: in vivo, human
Method: This example describes pharmacokinetic results from a Phase II clinical trial for the treatment of skin lesion resulting from Molluscum contagiosum. Patients received administrations of the cantharidin composition in Table 9 to Molluscum contagiosum lesions every 21 days for a maximum of 4 sessions or until complete clearance. Blood samples for systemic exposure evaluation were collected on Day 1, prior to the drug application, and 2 (+30 minutes), 6 (+1 hour) and 24 (±3 hours) hours post-application. The average age of the subjects was 7±3.5 years. The average body weight of the subjects was 58±34.6 lb. The average number of lesions per subject was 43.7±24.2.
The plasma concentration of cantharidin for all subjects was less than 3.3 ng/ml at all times sampled.

C[C@@]12C(=O)OC(=O)[C@]1(C)[C@H]1CC[C@@H]2O1 [cantharidin]
plasma concentration of cantharidin for all subjects at all times sampled (all seventeen subjects, 2, 6 and 24 hours post-application, composition of Table 9, topical): less than 3.3 ng/ml
Exposure (plasma cantharidin per individual subject, cantharidin composition of Table 9 applied topically to Molluscum contagiosum lesions, blood collected Day 1 at 2, 6 and 24 hours post-application, lower limit of quantification 2.5 ng/ml): <2.5 ng/ml (16×) and 3.3 ng/ml
plasma concentration of cantharidin below the lower limit of quantification (subjects as young as 2 years old, having over 100 lesions, having genital lesions, with as many as 2.26 lesions per lb, LLOQ 2.5 ng/ml, only one of seventeen subjects above LLOQ): < 2.5 ng/mL
